Experimental data: patent US20220331348A1, “METHOD OF PREPARING PENTACYCLIC TRITERPENOID SAPONINS AND DRUG COMPOSITION” (CHINA PHARMACEUTICAL UNIVERSITY, priority 2019, published 2022)
Marks after values point to notes of the source that are not given here.

Tests used:
[1] = system: AMPK in Huh-7 cells; assay: Activation activity on AMPK in Huh-7 cells (Western Blot); assay type: cell-based; settings: 10 μM, 12 h, Western Blot gray scale, relative to DMSO = 1
Protocol: The activation activity of a compound on AMPK in Huh-7 cells was detected by using Western Blot.
Cell culture conditions: Huh-7 cells were cultured in an incubator with 5% CO2 at 37° C. in DMEM complete medium (containing 10% fetal calf serum and 1% streptomycin/penicillin).
Antibody: anti-AMPK (CST, 2532S); anti-pAMPK (CST, 2535S).
Western Blot experiment: the influence of the compound on phosphorylation level of the AMPK in the Huh-7 cells was detected: cells with more than 90% cells alive were taken for the experiment. In a 12-well plate, the Huh-7 cells were plated in the plate at 250000 cells per well, the plate was placed in the incubator with 5% CO2 at 37° C. for culture, an original culture medium was discarded after 12 h, a complete medium containing the pentacyclic triterpenoid saponin was added, a final concentration of subject pentacyclic triterpenoid saponin was set to be 10 μM, and an administration time was set to be 12 h. A positive control compound employs AICAR (100 μM), metformin (70 μM) or A-769662 (100 μM). Then proteins were extracted for Western Blot detection.
Experimental result: a Western Blot experimental result was subjected to gray scale scanning, a p-AMPK/AMPK ratio of negative control DMSO was defined as 1, and a p-AMPK/AMPK ratio of the subject compound was a relative ratio of a negative control group. The larger the numerical value was, the stronger the activation activity of the AMPK of the compound was.

[2] = system: high fat diet induced NASH model rats; assay: High fat diet (HFD) induced NASH rat model; assay type: in vivo; design: MDA: unit not given here
Protocol: Animal: 32 SD male rats of SPF level with 6 weeks old and 220 g were purchased from Beijing Vital River Laboratory Animal Technology Co., Ltd. All the animals maintained 12 h alternative circadian rhythm with free access to food.
Reagent: the ginsenoside Ro (I) was purchased from Shanghai Boka Chemistry Technology Co., Ltd; obeticholic acid (OCA) was purchased from Jiangsu Vcare PharmaTech Co., Ltd; high fat diets were purchased from Research Diets (D12492, 60 kcal %); and standard feeds were purchased from Research Diets (D12450B, 10 kcal %).
The rats were randomly divided into 4 groups based on the weight: a control group (CHOW), a high fat diet model group (HFD), a positive drug obeticholic acid (OCA, 5 mg/Kg) group (HFD+OCA) and a ginsenoside Ro (Ro for short, 5 mg/kg) group (HFD+Ro). The control group was fed with the standard feeds and drank water normally; and the rest groups were fed with the high fat diets, drank 10% aqueous sucrose solution for replacing the water and were modeled for 20 weeks.
After 20 weeks, the control group and the high fat diet model group were given with a CMC-Na solution with the volume fraction of 0.5% intragastrically every day, the HFD+OCA group was given with the obeticholic acid (5 mg/Kg) intragastrically every day, and the HFD+Ro was given with the ginsenoside Ro (5 mg/Kg) intragastrically every day. Administration was conducted for 8 weeks, during which, the control group was given with the standard feeds and drank the water normally, and the rest three groups were given with the high fat diets and drank 10% aqueous sucrose solution. The rats in each group were weighed every day, weights, hairs, feces and activity conditions were carefully observed and recorded.
The rats were deprived of food but not water for 12 h in advance; and the next morning, blood was taken from eye sockets, the rats were sacrificed, and livers were harvested. Right liver lobule tissues were fixed with 4% paraformaldehyde for HE stained slicing. A part of liver tissues were divided into 3 parts, which were snap-frozen in liquid nitrogen for subsequent detection of other indexes.
Whole blood was left to still standing for 2 h at room temperature, centrifugation was conducted for 15 min at 3000 rpm, and a serum was collected. 100 Mg of liver tissues were taken and homogenized with 0.9 mL of precooled normal saline, a homogenate was centrifuged for 15 min at 4° C. and 3000 rpm, and a supernatant was taken. Both of the serum and the supernatant were sent to Pathologic Department of Hospital of Integrated Traditional Chinese and Western Medicine in Jiangsu Province for determination of levels of triglyceride (TG), total cholesterol (TC), low density lipoprotein cholesterin (LDL-c) and high density lipoprotein cholesterol (HDL-c) in the serum and levels of the TG and the TC in the supernatant of the homogenate of the liver tissues with the full-automatic biochemical analyzer.
Pretreated tissues were sent to Google Biotechnology Co., Ltd for preparing HE stained slices and oil red stained slices.
Liver tissues preserved at −80° C. were put in the liquid nitrogen, about 10 mg of the liver tissues were quickly dissected out, 500 μL of precooled tissue lysate was added, and the tissues were homogenized with a homogenizer and then left to lyse on ice for 30 min; and centrifugation was conducted for 15min at 4° C. and 12000 rpm, […] of a supernatant was sucked to a clean EP tube, […] of the supernatant was taken for BCA protein quantification, […] of 5*loading buffer was added in the rest protein supernatant for denaturing by boiling, SDS-PAGE electrophoresis was conducted subsequently, the proteins were transferred onto a PVDF membrane, then incubation and elution of a relevant antibody were conducted, and finally, a chemiluminescence apparatus was employed for imaging analysis.

[3] = system: human ADPKD cyst lining epithelial cell lines WT9-12; assay: Proliferation of polycystic kidney epithelial cells (CCK-8 method); assay type: cell-based; settings: polycystic kidney epithelial cells; 10 μM, 48 h; CCK-8; n = 6
Text: Cell and reagent: complete media for human ADPKD cyst lining epithelial cell lines WT9-12 and DMEM were purchased from ATCC Company; fetal calf serums were purchased from Gibco Company; Cell Counting Kit-8 was purchased from DOJINDO Company; Click-iT® EdU Imaging Kits were purchased from Invitrogen™ Thermo Fisher Scientific Company; Caspase -3/CPP32 Colorimetric Assay Kit was purchased from BioVision Company; Annexin V/PI double-staining flow type cell apoptosis detection kits were purchased from Bender Company; and anti-Phospho-(AMPKa, mTOR, p70S6K, 4E-BP1) antibodies were purchased from Cell Signaling Technology Company.
The influence of 2-DG on proliferation of the polycystic kidney epithelial cells was detected with a CCK-8 method: a DMEM complete medium containing 10% fetal calf serum (FBS) was prepared. The polycystic kidney epithelial cells were cultured in an incubator with 5% CO2 at 37° C. after being recovered, a solution was replaced every other day, the polycystic kidney epithelial cells were passaged every 2-3 days, and the cells were in a growing state of adhering to the wall. After trypsin enzyme digestion, cells were resuspended by using a complete medium, the concentration of a polycystic kidney epithelial cell suspension was regulated to be 3×10^7/L, the polycystic kidney epithelial cell suspension was inoculated to 96-well plate by […] per well for culture for 24 h, and the suspension was replaced by a culture medium containing 0.1% FBS for synchronization for 24 h.

[4] = HFD NASH rats, summary in words
[5] = HFD induced NASH model rats, 5 mg/Kg, n = 8
[6] = serum of HFD induced NASH model rats, 5 mg/Kg, n = 8

madecassoside [(VI)]
pAMPK/AMPK ratio [1]: 2.27
inflammatory responses of the livers [2, 4]: inhibit
lipid accumulation, caused by the high fat diets, of the rat livers [2, 4]: effectively lower
Liver TC [2, 5]: 0.472 ± 0.201** mmoL/gprot
Liver TG [2, 5]: 1.240 ± 0.213** mmoL/gprot
Serum LDL-c [2, 5]: 47.25 ± 7.45* mg/dL
Serum TG [2, 5]: 18.83 ± 4.11** mg/dL
ALT [2, 6]: 65.86 ± 10.43*** U/L
AST [2, 6]: 127.21 ± 9.34* U/L
MDA [2, 6]: 11.59 ± 2.88*
Inhibition rate (%) [3]: 76.3 ± 2.3 %
